In brackets after ≈: the same amount, converted by molar mass. Starred links: 1 amine or outer side, 2 acyl side, 3 side chain; linkers in the order of their positions; H or OH if unused. Non-standard residues stand in square brackets, D forms with d. Residues, ends and D or L forms follow the SMILES beside them. *: point of attachment. Ethylenediamine = C(CN[*:2])N[*:1]; Lauroyl = CCCCCCCCCCCC(=O)*; Decanoyl = CCCCCCCCCC(=O)*; Octanoyl = CCCCCCCC(=O)*; Hexanoyl = CCCCCC(=O)*
Key:
Type in all cases: cell-based
[1] = test system: Propionibacterium acnes ATCC 6919; assay: MIC, agar dilution method NCCLS M11-A6, Brucella agar, anaerobic (Table 9, superscript c); conditions: ATCC 6919
Method: A bacterial suspension was prepared to allow for a final inoculum on the plate of 1.5×10^8 CFU/milliliter. After the suspension absorbed into the agar surface, the plates were incubated for 48-96 hours at 37° C. in a GasPak anaerobic chamber. The lowest concentration of peptide that contained no colony growth on the agar plate was determined as the MIC. MIC values that utilized this method of MIC determination are indicated in Table 9 with a superscript letter “c.”

Salmonella dublin (Lane) = assay: MIC, NCCLS M7-A6 broth microdilution (Table 9, no superscript)
How it was run: (§1)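 Values come from a broth microdilution assay run in cation-adjusted Mueller Hinton broth with an inoculum of 5×10^5 to 1×10^6 CFU/milliliter, incubated overnight at 37° C and read as absence of visible turbidity.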

[2] = test system: Pseudomonas aeruginosa ATCC 27853; assay: as above; conditions: ATCC 27853
How it was run: as §1

[3] = test system: Staphylococcus epidermidis ATCC 12228; assay: as above; conditions: ATCC 12228
How it was run: as §1

[4] = test system: Escherichia coli ATCC 25922; assay: as above; conditions: ATCC 25922
How it was run: as §1

[5] = test system: Staphylococcus aureus ATCC 29213; assay: MIC, NCCLS M7-A6 broth microdilution, cation-adjusted Mueller Hinton broth (Table 9, no superscript); conditions: ATCC 29213
How it was run: as §1

SMILES: CCCCCCCCCCCC(=O)N[C@@H](C(=O)N[C@H](CCCNC(=N)N)C(=O)N[C@@H](C(=O)N[C@H](CO)C(=O)N[C@H](CCCNC(=N)N)C(=O)N[C@@H](C(=O)NCC(=O)N[C@H](CCCNC(=N)N)C(=O)N[C@H](CO)C(=O)N[C@H](CCCNC(=N)N)C(=O)N[C@H](Cc1c[nH]c2ccccc12)C(=O)N[C@H](CCCNC(=N)N)C(=O)N[C@H](CC(=O)O)C(=O)N[C@H](Cc1c[nH]c2ccccc12)C(=O)N[C@H](CO)C(=O)N[C@H](CCCNC(=N)N)C(=O)N[C@H](CC(N)=O)C(=O)N[C@H](Cc1ccccc1)C(=O)N[C@H](CCSC)C(=O)N[C@H](CCCNC(=N)N)C(=O)N[C@H](C)C(=O)N[C@H](C)C(=O)N[C@@H](CCCCN)C(N)=O)[C@H](C)O)C(C)C)[C@H](C)O [Peptide 80, Lauryl-trvsrtgrsrwrdwsrnfmraaK-NH2] (Lauroyl-[dT][dR][dV][dS][dR][dT]G[dR][dS][dR][dW][dR][dD][dW][dS][dR][dN][dF][dM][dR][dA][dA]K-NH2)
- MIC P. acnes [1]: >64c ug/mL
- MIC S. dublin (Salmonella dublin (Lane)): 16 µg/mL (≈ 5.22 µM)
- MIC P. aeruginosa [2]: >64 µg/mL
- MIC S. epidermidis [3]: 2 µg/mL (≈ 0.653 µM)
- MIC E. coli [4]: 32 µg/mL (≈ 10.4 µM)
- MIC S. aureus [5]: 16 µg/mL (≈ 5.22 µM)

SMILES: CCCCCCCCCCCC(=O)N[C@H](CCCNC(=N)N)C(=O)N[C@H](Cc1c[nH]c2ccccc12)C(=O)N[C@H](CCCNC(=N)N)C(=O)N[C@H](C)C(=O)N[C@H](CC(C)C)C(=O)N[C@H](C)C(=O)N[C@H](CCCNC(=N)N)C(N)=O [Peptide 245, Lauryl-rwralar-NH2] (Lauroyl-[dR][dW][dR][dA][dL][dA][dR]-NH2)
- MIC P. acnes [1]: 8c ug/mL
- MIC S. dublin (Salmonella dublin (Lane)): 16 µg/mL (≈ 14.4 µM)
- MIC P. aeruginosa [2]: 8 µg/mL (≈ 7.21 µM)
- MIC S. epidermidis [3]: 2 µg/mL (≈ 1.8 µM)
- MIC E. coli [4]: 8 µg/mL (≈ 7.21 µM)
- MIC S. aureus [5]: 1 µg/mL (≈ 0.901 µM)

SMILES: CCCCCCCCCCCC(=O)N[C@H](CCCNC(=N)N)C(=O)N[C@H](C)C(=O)N[C@H](CCCNC(=N)N)C(=O)N[C@H](Cc1c[nH]c2ccccc12)C(=O)N[C@H](CCCNC(=N)N)C(=O)N[C@H](CC(=O)O)C(=O)N[C@@H](C(=O)N[C@H](C)C(=O)N[C@H](CCCNC(=N)N)C(=O)N[C@H](CC(N)=O)C(=O)N[C@H](Cc1ccccc1)C(=O)N[C@H](CC(C)C)C(=O)N[C@H](CCCNC(=N)N)C(N)=O)C(C)C [Peptide 224, Lauryl-rarwrdvarnflr-NH2] (Lauroyl-[dR][dA][dR][dW][dR][dD][dV][dA][dR][dN][dF][dL][dR]-NH2)
- MIC P. acnes [1]: 32c ug/mL
- MIC S. dublin (Salmonella dublin (Lane)): 4 µg/mL (≈ 2.11 µM)
- MIC P. aeruginosa [2]: 16 µg/mL (≈ 8.43 µM)
- MIC S. epidermidis [3]: 2 µg/mL (≈ 1.05 µM)
- MIC E. coli [4]: 8 µg/mL (≈ 4.22 µM)
- MIC S. aureus [5]: 2 µg/mL (≈ 1.05 µM)

SMILES: CCCCCCCC(=O)NCCNC(=O)[C@H](CCCNC(=N)N)NC(=O)[C@H](CC(C)C)NC(=O)[C@H](Cc1ccccc1)NC(=O)[C@H](CC(N)=O)NC(=O)[C@H](CCCNC(=N)N)NC(=O)[C@H](C)NC(=O)[C@@H](NC(=O)[C@H](CC(=O)O)NC(=O)[C@H](CCCNC(=N)N)NC(=O)[C@H](Cc1c[nH]c2ccccc12)NC(=O)[C@H](CCCNC(=N)N)NC(=O)[C@H](CO)NC(=O)[C@@H](N)CCCNC(=N)N)C(C)C [Peptide 169, H2N-RSRWRDVARNFLR-Ethylamidooctanyl] (H-RSRWRDVARNFLR-{Ethylenediamine-Octanoyl}; C-terminus assumed)
- MIC P. acnes [1]: 64c ug/mL
- MIC S. dublin (Salmonella dublin (Lane)): 8 µg/mL (≈ 4.21 µM)
- MIC P. aeruginosa [2]: 4 µg/mL (≈ 2.1 µM)
- MIC S. epidermidis [3]: 1 µg/mL (≈ 0.526 µM)
- MIC E. coli [4]: 2 µg/mL (≈ 1.05 µM)
- MIC S. aureus [5]: 4 µg/mL (≈ 2.1 µM)

SMILES: CCCCCCCCCC(=O)N[C@H](CCCNC(=N)N)C(=O)N[C@H](CO)C(=O)N[C@H](CCCNC(=N)N)C(=O)N[C@H](Cc1c[nH]c2ccccc12)C(=O)N[C@H](CCCNC(=N)N)C(=O)N[C@H](CC(=O)O)C(=O)N[C@@H](C(=O)N[C@H](C)C(=O)N[C@H](CCCNC(=N)N)C(=O)N[C@H](CC(N)=O)C(=O)N[C@H](Cc1ccccc1)C(=O)N[C@H](CCSC)C(=O)N[C@H](CCCNC(=N)N)C(N)=O)C(C)C [Peptide 208, Decanyl-rsrwrdvarnfmr-NH2] (Decanoyl-[dR][dS][dR][dW][dR][dD][dV][dA][dR][dN][dF][dM][dR]-NH2)
- MIC P. acnes [1]: 2c ug/mL
- MIC S. dublin (Salmonella dublin (Lane)): 8 µg/mL (≈ 4.2 µM)
- MIC P. aeruginosa [2]: >64 µg/mL
- MIC S. epidermidis [3]: >64 µg/mL
- MIC E. coli [4]: >64 µg/mL
- MIC S. aureus [5]: 4 µg/mL (≈ 2.1 µM)

SMILES: CCCCCCCCCCCC(=O)N[C@H](CCCNC(=N)N)C(=O)N[C@H](Cc1c[nH]c2ccccc12)C(=O)N[C@H](CCCNC(=N)N)C(=O)N[C@H](C)C(=O)N[C@@H](C(=O)N[C@H](C)C(=O)N[C@H](CCCNC(=N)N)C(N)=O)C(C)C [Peptide 246, Lauryl-rwravar-NH2] (Lauroyl-[dR][dW][dR][dA][dV][dA][dR]-NH2)
- MIC P. acnes [1]: 32c ug/mL
- MIC S. dublin (Salmonella dublin (Lane)): >64 µg/mL
- MIC P. aeruginosa [2]: >64 µg/mL
- MIC S. epidermidis [3]: 2 µg/mL (≈ 1.83 µM)
- MIC E. coli [4]: 32 µg/mL (≈ 29.2 µM)
- MIC S. aureus [5]: 4 µg/mL (≈ 3.65 µM)

SMILES: CCCCCCCCCCCC(=O)N[C@@H](CCCNC(=N)N)C(=O)N[C@@H](Cc1c[nH]c2ccccc12)C(=O)N[C@@H](CCCNC(=N)N)C(=O)N[C@@H](CC(=O)O)C(=O)N[C@@H](CC(C)C)C(=O)N[C@@H](C)C(=O)N[C@@H](CCCNC(=N)N)C(N)=O [Peptide 241, Lauryl-RWRDLAR-NH2] (Lauroyl-RWRDLAR-NH2)
- MIC P. acnes [1]: 64c ug/mL
- MIC S. dublin (Salmonella dublin (Lane)): 16 µg/mL (≈ 13.9 µM)
- MIC P. aeruginosa [2]: 32 µg/mL (≈ 27.7 µM)
- MIC S. epidermidis [3]: 8 µg/mL (≈ 6.94 µM)
- MIC E. coli [4]: 32 µg/mL (≈ 27.7 µM)
- MIC S. aureus [5]: 4 µg/mL (≈ 3.47 µM)

SMILES: CCCCCCCCCCCC(=O)N[C@H](CO)C(=O)N[C@H](CCCNC(=N)N)C(=O)N[C@H](Cc1c[nH]c2ccccc12)C(=O)N[C@H](CCCNC(=N)N)C(=O)N[C@H](CC(=O)O)C(=O)N[C@@H](C(=O)N[C@H](C)C(=O)N[C@H](CCCNC(=N)N)C(=O)N[C@H](CC(N)=O)C(=O)N[C@H](Cc1ccccc1)C(=O)N[C@H](CC(C)C)C(=O)N[C@H](CCCNC(=N)N)C(N)=O)C(C)C [Peptide 212, Lauryl-srwrdvarnflr-NH2] (Lauroyl-[dS][dR][dW][dR][dD][dV][dA][dR][dN][dF][dL][dR]-NH2)
- MIC P. acnes [1]: 2c ug/mL
- MIC S. dublin (Salmonella dublin (Lane)): 4 µg/mL (≈ 2.28 µM)
- MIC P. aeruginosa [2]: 64 µg/mL (≈ 36.4 µM)
- MIC S. epidermidis [3]: 2 µg/mL (≈ 1.14 µM)
- MIC E. coli [4]: 8 µg/mL (≈ 4.55 µM)
- MIC S. aureus [5]: 4 µg/mL (≈ 2.28 µM)

SMILES: CCCCCCCCCCCC(=O)N[C@H](CCCNC(=N)N)C(=O)N[C@H](CO)C(=O)N[C@H](CCCNC(=N)N)C(=O)N[C@H](Cc1c[nH]c2ccccc12)C(=O)N[C@H](CCCNC(=N)N)C(=O)N[C@H](CC(=O)O)C(=O)N[C@@H](C(=O)N[C@H](C)C(=O)N[C@H](CCCNC(=N)N)C(=O)N[C@H](CC(N)=O)C(=O)N[C@H](Cc1ccccc1)C(=O)N[C@H](CC(C)C)C(=O)N[C@H](CCCNC(=N)N)C(N)=O)C(C)C [Peptide 210, Lauryl-rsrwrdvarnflr-NH2] (Lauroyl-[dR][dS][dR][dW][dR][dD][dV][dA][dR][dN][dF][dL][dR]-NH2)
- MIC P. acnes [1]: 8c ug/mL
- MIC S. dublin (Salmonella dublin (Lane)): 4 µg/mL (≈ 2.09 µM)
- MIC P. aeruginosa [2]: 16 µg/mL (≈ 8.36 µM)
- MIC S. epidermidis [3]: 2 µg/mL (≈ 1.05 µM)
- MIC E. coli [4]: 8 µg/mL (≈ 4.18 µM)
- MIC S. aureus [5]: 4 µg/mL (≈ 2.09 µM)

SMILES: CCCCCCCCCC(=O)N[C@H](CCCNC(=N)N)C(=O)N[C@H](CO)C(=O)N[C@H](CCCNC(=N)N)C(=O)N[C@H](Cc1c[nH]c2ccccc12)C(=O)N[C@H](CCCNC(=N)N)C(=O)N[C@H](CC(=O)O)C(=O)N[C@@H](C(=O)N[C@H](C)C(=O)N[C@H](CCCNC(=N)N)C(=O)N[C@H](CC(N)=O)C(=O)N[C@H](Cc1ccccc1)C(=O)N[C@H](CC(C)C)C(=O)N[C@H](CCCNC(=N)N)C(N)=O)C(C)C [Peptide 190, Decanyl-rsrwrdvarnflr-NH2] (Decanoyl-[dR][dS][dR][dW][dR][dD][dV][dA][dR][dN][dF][dL][dR]-NH2)
- MIC P. acnes [1]: 4 µg/mL (≈ 2.12 µM)
- MIC P. aeruginosa [2]: 8 µg/mL (≈ 4.24 µM)
- MIC S. epidermidis [3]: 2 µg/mL (≈ 1.06 µM)
- MIC E. coli [4]: 4 µg/mL (≈ 2.12 µM)
- MIC S. aureus [5]: 8 µg/mL (≈ 4.24 µM)

SMILES: CCCCCC(=O)N[C@@H](CCCNC(=N)N)C(=O)N[C@@H](CO)C(=O)N[C@@H](CCCNC(=N)N)C(=O)N[C@@H](Cc1c[nH]c2ccccc12)C(=O)N[C@@H](CCCNC(=N)N)C(=O)N[C@@H](CC(=O)O)C(=O)N[C@H](C(=O)N[C@@H](C)C(=O)N[C@@H](CCCNC(=N)N)C(=O)N[C@@H](CC(N)=O)C(=O)N[C@@H](Cc1ccccc1)C(=O)N[C@@H](CCSC)C(=O)N[C@@H](CCCNC(=N)N)C(N)=O)C(C)C [Peptide 202, Hexyl-RSRWRDVARNFMR-NH2] (Hexanoyl-RSRWRDVARNFMR-NH2)
- MIC P. acnes [1]: >64c ug/mL
- MIC S. dublin (Salmonella dublin (Lane)): >64 µg/mL
- MIC S. aureus [5]: >64 µg/mL

Reference: patent US20050282755A1, “Compositions having antimicrobial activity and uses thereof” (priority 2004, published 2005)
